Data set [1] addresses PI3K gamma kinase (Homo sapiens, UniProt P48736). The data set is described as follows: In vitro PI3K gamma kinase assay (PI3-Kinase (human) HTRF Assay kit). The note with it: for pIC50: PI3K gamma, 10 μM PIP2, 10 μM ATP, room temperature 1 h, HTRF, two replicates, read-out: IC50 value, PI3K inhibitory activity. It counts as biochemical.
Protocol: The in vitro PI3K gamma kinase assay was carried out using a PI3-Kinase (human) HTRF^TM Assay kit (Millipore, USA) according to the manufacturer’s protocol. Briefly, the PI3K gamma kinase was incubated with 10 μM sample (tested compounds) in the reaction buffer containing 10 μM PIP2 in the wells of a 384-well opaque black plate (PerkinElmer, USA) at room temperature. Kinase reactions were initiated by adding 10 μM ATP and incubating the plate at room temperature for 1 h. The reactions were quenched by adding 5 μL of Stop Solution (containing EDTA and biotin-PIP3), and then the detection buffer (containing the Europium-labeled anti-GST antibody, the GST-tagged receptor of the phosphoinositide (GRP1) PH domain, and streptavidin–APC) was added to each well. Following 2 h incubation in the dark, the HTRF signal was measured with a 2104 EnVision® Multilabel Reader (PerkinElmer, USA) in the time-resolved fluorescence mode, set for excitation at 320 nm and dual emission detection at 615 nm (Eu) and 665 nm (APC). The emission ratio (ER) of 665 nm emission signal to 615 nm emission signal was then calculated and the inhibition ratio of a certain sample on PI3K was calculated according to the following formula: PI3K inhibition (%) = (ERsample − ER0%)/(ER100% − ER0%) × 100%. ER0% means 0% inhibition, which was calculated from the reaction of PI3K, PIP2, and ATP in the absence of sample.
Data set [2] has as its system MCF-7 cells. The data set is described as follows: Cytotoxicity assay (CCK-8) against breast cancer cell line MCF-7. Type of data set: cell-based, human. The note with it: MCF-7, 40 μM, 48 h.
Protocol: (§1) The human breast cancer MCF-7 cell line (ATCC HTB-22) was used in the cytotoxicity assay. The cell line was cultured in DMEM (Gibco, Life Technologies, USA), supplemented with 10% fetal bovine serum (Gibco, Life Technologies, USA), in a 5% CO2 atmosphere at 37 °C. […] After a treatment with 40 μM of each compound (Dissolved with DMSO) for 48 h, the CCK-8 solution (10 μL) was added to each well and incubated for 2 h at 37 °C. The absorbance (Ab) of samples was detected at 450 nm using a microtiter plate reader (TriStar LB941, Berthold Technologies, Germany).
On the set-up of data set [3]: method as in PMID 19523825. The note with it: cited from earlier work.
Data set [4] in a line: Cytotoxicity assay (CCK-8) against breast cancer cell line MCF-7. The note with it: human, MCF-7 breast cancer cells (ATCC HTB-22), MCF-7, 48 h. It counts as cell-based, human.
Protocol: as §1

pIC50: −log10 of the molar value. Read-outs that look alike come from different tables or passages of the source.

Chain of PI3K gamma kinase (P48736 whole entry): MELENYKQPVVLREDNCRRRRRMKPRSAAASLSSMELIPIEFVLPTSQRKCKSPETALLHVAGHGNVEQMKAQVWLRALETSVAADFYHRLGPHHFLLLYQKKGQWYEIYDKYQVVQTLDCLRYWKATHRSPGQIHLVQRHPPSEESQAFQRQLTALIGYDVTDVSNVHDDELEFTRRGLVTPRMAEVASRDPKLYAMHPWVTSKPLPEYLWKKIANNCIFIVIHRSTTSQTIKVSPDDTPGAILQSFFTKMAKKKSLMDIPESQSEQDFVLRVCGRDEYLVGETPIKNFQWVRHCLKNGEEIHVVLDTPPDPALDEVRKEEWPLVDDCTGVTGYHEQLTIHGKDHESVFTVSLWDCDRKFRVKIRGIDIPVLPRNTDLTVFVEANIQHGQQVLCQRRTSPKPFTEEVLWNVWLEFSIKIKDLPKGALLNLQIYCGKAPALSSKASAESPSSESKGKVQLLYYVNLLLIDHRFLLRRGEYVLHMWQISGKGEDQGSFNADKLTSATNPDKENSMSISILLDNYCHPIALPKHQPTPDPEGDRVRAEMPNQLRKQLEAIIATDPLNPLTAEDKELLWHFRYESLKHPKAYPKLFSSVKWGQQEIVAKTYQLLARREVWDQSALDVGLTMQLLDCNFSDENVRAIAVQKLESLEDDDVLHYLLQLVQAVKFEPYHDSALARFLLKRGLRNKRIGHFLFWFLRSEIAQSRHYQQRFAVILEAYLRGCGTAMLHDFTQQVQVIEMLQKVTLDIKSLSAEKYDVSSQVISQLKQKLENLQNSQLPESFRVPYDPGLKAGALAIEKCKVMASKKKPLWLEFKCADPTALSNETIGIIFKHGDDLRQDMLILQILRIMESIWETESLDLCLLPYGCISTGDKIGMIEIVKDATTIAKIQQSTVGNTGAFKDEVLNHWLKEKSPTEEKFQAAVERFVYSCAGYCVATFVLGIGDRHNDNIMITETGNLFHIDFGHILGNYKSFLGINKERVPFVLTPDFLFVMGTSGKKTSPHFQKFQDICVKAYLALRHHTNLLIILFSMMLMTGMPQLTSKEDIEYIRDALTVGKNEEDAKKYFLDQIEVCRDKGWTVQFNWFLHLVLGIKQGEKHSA

One may read the melting point as the temperature, or range, at which the solid turns liquid. As for `CC(=O)[C@H]1CC[C@H]2C3=C(CC[C@]12C)[C@@]1(C)CC[C@H](O)C2=C1[C@@](O)(OC2)C3=O`, the melting point lay in the range of 218.2 to 221.7 °C.
Same read-out and setting: then `C[C@]12CC[C@H](O)c3coc(c31)C(=O)C1=C2C=C[C@]2(C)C(=O)CC[C@@H]12`, with 236.4 to 238.7 °C.
Still for that read-out and setting: then `C[C@]12CCC3=C(C(=O)c4occ5c4[C@]3(C)CC[C@@H]5O)[C@@H]1CC[C@@H]2O`, with 187.1 to 189.6 °C.
Broadly, the pIC50 is the negative decadic logarithm of the IC50, by convention in mol/L. `C[C@@]12c3ccc4c(c3C(=O)c3occ(c31)C(=O)C[C@H]2O)CCC4=O` [Compound 1, demethoxyviridin]: in data set [1], the pIC50 was 8.18. The “cytotoxicity against MCF-7 (in words)” value in data set [2] was “moderate cytotoxicity”. Also, the “stability in PBS and culture media (in words)” value in data set [3] was “instability”.
What is called IC50 is the concentration needed to halve the response being measured. For `C[C@@]12c3ccc4c(c3C(=O)c3occ(c31)[C@@H](O)C[C@H]2O)CCC4=O` [Compound 2, demethoxyviridiol], the pIC50 in data set [1] was 5.97. Also, in data set [4] (three replicates, read-out: IC50 value, cytotoxicity against MCF-7 (Supplementary Figure 9b)), the IC50 at 48 h stood at 37.3 µM.
On to `C[C@]12CCC(=O)c3coc(c31)C(=O)c1c2ccc2c1CCC2=O` [Compound 3, dehydroxydemethoxyviridin], for which, in data set [1], the pIC50 is 6.78.
Consider `C[C@]12CCC3=C(C(=O)c4occ5c4[C@]3(C)CCC5=O)[C@@H]1CC[C@@H]2O` [Compound 7, (6bR,9S,9aS,11bR)-9-hydroxy-9a,11b-dimethyl-1,2,6b,7,8,9,9a,10,11,11b-decahydrocyclopenta[7,8]phenanthro[10,1-bc]furan-3,6-dione], for which the pIC50 in data set [1] is 7.37. Moreover, the IC50 at 48 h in data set [4] (read-out: IC50 value, cytotoxicity against MCF-7) stood at 15 µM.
On to `CC(=O)O[C@H]1CC[C@H]2C3=C(CC[C@]12C)[C@@]1(C)CC[C@H](O)c2coc(c21)C3=O` [Compound 9, (3S,6bR,9S,9aS,11bR)-3-hydroxy-9a,11b-dimethyl-6-oxo-1,2,3,6,6b,7,8,9,9a,10,11,11b-dodecahydrocyclopenta[7,8]phenanthro[10,1-bc]furan-9-yl acetate], for which the “inhibitory effect on PI3K (in words)” value in data set [1] (10 μM sample, Fig. 8a) is “abolishes the activity”.
Regarding `CC(=O)[C@H]1CC[C@H]2C3=C(CC[C@]12C)[C@@]1(C)CCC(=O)c2coc(c21)C3=O` [Compound 10, virone], the pIC50 in data set [1] was 5.65.

The record behind these values is paper PMC5943271, “Biosynthetic pathway for furanosteroid demethoxyviridin and identification of an unusual pregnane side-chain cleavage” (Nature Communications, 2018).
